Assay results: patent US7795235B2, “Semi-soft c-class immunostimulatory oligonucleotides” (Coley Pharmaceutical GmbH, priority 2004, dated 2010)
Oligonucleotides are written 5' to 3', each unit as a sugar letter and its base; * is a phosphorothioate linkage, no mark a phosphodiester; rarer units and linkages stand in square brackets, end groups in braces. Plain capitals give the bases only. d = 2'-deoxy (DNA)

Key:
[1] = system: human PBMC; assay: Cytokine secretion (IL-10, TNF-alpha, interferon-gamma, IL-6) from human PBMC; assay type: cell-based; conditions: human PBMC (3 donors), 48 hours, ELISA, FIG. 27
Method: Peripheral blood buffy coat preparations from healthy male and female human donors were obtained from the Blood Bank of the University of Düsseldorf (Germany) and from these, PBMC were purified by centrifugation over Ficoll-Hypaque (Sigma). The purified PBMC were either used freshly (for most assays) or were suspended in freezing medium and stored at −70° C. When required, aliquots of these cells were thawed, washed and resuspended in RPMI 1640 culture medium (BioWhittaker, Belgium) supplemented with 5% (v/v) heat inactivated human AB serum (BioWhittaker, Belgium) or 10% (v/v) heat inactivated FCS, 2 mM L-glutamine (BioWhittaker), 100 U/ml penicillin and 100 μg/ml streptomycin (Invitrogen (Karlsruhe, Germany)).
Thawed or fresh PBMC were seeded on 48 well flat-bottom plates, or 96 well round-bottom plates, and incubated with ODN in the concentrations as indicated in a humidified incubator at 37° C. Culture supernatants were collected and if not used immediately, were frozen at −20° C. until required. Amounts of cytokines in the supernatants were assessed using commercially available ELISA Kits (Diaclone, USA) or in-house ELISAs developed using commercially available antibodies (from Becton Dickinson/Pharmingen or PBL). […]

[2] = target: T1, human TLR9 (Homo sapiens, UniProt Q9NR96); assay: Stimulation of TLR9-transfected cells in vitro (luciferase readout); assay type: cell-based; conditions: quotient between highest value of all concentrations tested and medium control
T1 construct: expressed in transfected cells; host or cells: HEK 293
T1 sequence (Q9NR96 26-1032): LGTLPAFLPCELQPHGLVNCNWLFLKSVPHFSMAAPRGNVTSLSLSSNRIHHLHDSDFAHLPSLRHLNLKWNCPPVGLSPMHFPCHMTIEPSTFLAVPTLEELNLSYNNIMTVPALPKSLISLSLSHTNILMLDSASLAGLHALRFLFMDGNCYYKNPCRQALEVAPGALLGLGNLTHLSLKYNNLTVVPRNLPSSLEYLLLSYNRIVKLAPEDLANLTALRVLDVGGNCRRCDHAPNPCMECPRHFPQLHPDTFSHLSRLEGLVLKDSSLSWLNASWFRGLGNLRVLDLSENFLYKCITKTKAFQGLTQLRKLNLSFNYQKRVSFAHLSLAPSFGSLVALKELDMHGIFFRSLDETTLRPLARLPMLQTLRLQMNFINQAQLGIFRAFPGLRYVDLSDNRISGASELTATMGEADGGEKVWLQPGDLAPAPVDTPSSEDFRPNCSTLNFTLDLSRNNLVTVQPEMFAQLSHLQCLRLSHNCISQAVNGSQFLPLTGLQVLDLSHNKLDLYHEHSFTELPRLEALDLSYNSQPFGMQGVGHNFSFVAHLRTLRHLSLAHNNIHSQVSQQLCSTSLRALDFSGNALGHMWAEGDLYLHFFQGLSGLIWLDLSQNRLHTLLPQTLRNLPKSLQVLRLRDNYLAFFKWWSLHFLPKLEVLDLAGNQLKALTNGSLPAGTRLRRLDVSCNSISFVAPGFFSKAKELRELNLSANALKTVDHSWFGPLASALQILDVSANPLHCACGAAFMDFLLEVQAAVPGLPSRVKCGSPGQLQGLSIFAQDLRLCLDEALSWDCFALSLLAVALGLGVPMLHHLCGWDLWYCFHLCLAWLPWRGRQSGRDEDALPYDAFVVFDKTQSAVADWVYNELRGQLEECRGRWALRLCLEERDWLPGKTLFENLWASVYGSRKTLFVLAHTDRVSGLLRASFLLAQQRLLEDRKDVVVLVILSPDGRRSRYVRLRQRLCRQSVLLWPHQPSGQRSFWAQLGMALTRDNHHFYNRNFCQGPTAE
Method: Methods: HEK 293 cells transfected with human TLR9 were incubated with SEQ ID NO:1, SEQ ID NO:2, SEQ ID NO:3, SEQ ID NO:4, SEQ ID NO:5, or SEQ ID NO:6 for 16 hours. The signal was determined by a luciferase readout.
The EC50 was calculated using Sigma Plot (SigmaPlot 2002 for Windows version 8.0). The maximal stimulation index (max SI) was calculated as the quotient between the highest value of all concentrations tested for any ODN and the medium control.

Substance	induction of IL-10 [1]	max SI (maximal stimulation index) [2]
2 (T*C_G*T*C_G*T*C_G*T*T*C_G*G*C*G*C_G*C*G*C*C*G; as printed in the source, key not given here) [compound 2]	dramatically higher induction	–
T*C_G*T*C_G*A*C_G*A*T*C_G*G*C*G*C_G*C*G*C*C*G (DNA TCGTCGACGATCGGCGCGCGCCG; DNA, backbone and methylation of C not given here; Stabilized (*) and phosphodiester or phosphodiester-like (_) linkages) [SEQ ID NO: 4]	–	14
T*C_G*T*C_G*A*C_G*T*T*C_G*G*C*G*C_G*C*G*C*C*G (DNA dT*dCdG*dT*dCdG*dA*dCdG*dT*dT*dCdG*dG*dC*dG*dCdG*dC*dG*dC*dC*dG) [SEQ ID NO: 1, Semi-soft class C CpG ODN]	dramatically higher induction	22
T*C_G*T*C_G*T*T*C_G*G*C*G*C*G*C*C*G (DNA TCGTCGTTCGGCGCGCCG; DNA, backbone and methylation of C not given here; Stabilized (*) and phosphodiester or phosphodiester-like (_) linkages) [SEQ ID NO: 3, Semi-soft class C CpG ODN]	–	16
T*T*C_G*T*C_G*T*T*T*T_G*T*C_G*T*T (DNA TTCGTCGTTTTGTCGTT; DNA, backbone and methylation of C not given here; Stabilized (*) and phosphodiester or phosphodiester-like (_) linkages) [SEQ ID NO: 5]	–	13
T*T*T*C_G*T*C_G*T*T*T*C_G*T*C_G*T*T (DNA TTTCGTCGTTTCGTCGTT; DNA, backbone and methylation of C not given here; Stabilized (*) and phosphodiester or phosphodiester-like (_) linkages) [SEQ ID NO: 6]	–	11
